In US8716347B2, “Tramadol for the treatment of functional gastrointestinal disorders” (Euro-Celtique S.A., priority 2000, dated 2014):
Counter-ions that a name gives are not always drawn.

Experiments:
[1] = tested on: gut transit time; conditions: in vivo; cited from earlier work
[2] = tested on: functional gastrointestinal disorder (diarrhoea with abdominal pain); experiment: Treatment of patients with abdominal pain and diarrhoea with normal release tramadol (case reports); format: in vivo, human; conditions: 50 mg normal release twice daily
[3] = tested on: patients started on tramadol pain therapy; conditions: initially when started on tramadol pain therapy; cited from earlier work
[4] = Example 2: person with abdominal pain and diarrhoea

## CN(C)CCCN1c2ccccc2CCc2ccccc21 [imipramine]
[1]
  effect on gut transit time: increase gut transit time

## COc1cccc(C2(O)CCCCC2CN(C)C)c1 (stereo not shown) [tramadol hydrochloride]
[2]; Example 1: person, long term chronic refractory diarrhoea
  bowel movements after treatment: normal bowel movements
[2]; Example 1: person, severe persistent abdominal pain
  abdominal pain after treatment: absence of pain

## COc1cccc(C2(O)CCCCC2CN(C)C)c1 (stereo not shown) [tramadol, 2-[(Dimethylamino)methyl]-1-(3-methoxyphenyl)cyclohexanol]
[3]
  proportion of patients suffering nausea and vomiting: one third and a half
[2]; [4]
  abdominal pain after treatment: relief of pain
  bowel movements after treatment: normal bowel movements
[2]; Example 2: person
  side effect: some drowsiness
